Assay results published in US10683282B2, “Multi-substituted pyrimidine derivatives with excellent kinase inhibitory activities” (KOREA INSTITUTE OF SCIENCE AND TECHNOLOGY, priority 2018, dated 2020).

Key:
ACK1 = biological target: T1, ACK1 (Homo sapiens, UniProt Q07912); assay: Kinase screening, HotSpot assay (Reaction Biology); type: biochemical
T1 construct: purchased Reaction Biology Corporation
Protocol: (§1) Kinase screening was performed using a “HotSpot” assay platform method by Reaction Biology Corporation. The reaction buffer used herein contained 20 mM HEPES (pH 7.5), 10 mM MgCl2, 1 mM EGTA, 0.02% Brij35, 0.02 mg/mL BSA, 0.1 mM Na3VO4, 2 mM DTT and 1% DMSO. The required cofactors were added in accordance with the kinase reaction. Freshly made buffer and cofactors were added at a concentration of 20 μM during the selected enzyme reaction. A solution of the test compound in dimethylsulfoxide (DMSO) was added at a suitable concentration to this solution. In order to initiate reaction, […] (specific activity […]) was added and incubated at room temperature for 2 hours. The test compound was screened at a starting concentration of 20 μM in a 10-dose IC50 mode. IC50 of Staurosporine used as a control drug was obtained at a starting concentration of 20 μM in a 10-dose IC50 mode.

ARK5/NUAK1 = biological target: T2, ARK5/NUAK1 (Homo sapiens, UniProt O60285); assay: Kinase screening, HotSpot assay (Reaction Biology); type: biochemical
T2 construct: purchased Reaction Biology Corporation
T2 sequence (O60285 1-661): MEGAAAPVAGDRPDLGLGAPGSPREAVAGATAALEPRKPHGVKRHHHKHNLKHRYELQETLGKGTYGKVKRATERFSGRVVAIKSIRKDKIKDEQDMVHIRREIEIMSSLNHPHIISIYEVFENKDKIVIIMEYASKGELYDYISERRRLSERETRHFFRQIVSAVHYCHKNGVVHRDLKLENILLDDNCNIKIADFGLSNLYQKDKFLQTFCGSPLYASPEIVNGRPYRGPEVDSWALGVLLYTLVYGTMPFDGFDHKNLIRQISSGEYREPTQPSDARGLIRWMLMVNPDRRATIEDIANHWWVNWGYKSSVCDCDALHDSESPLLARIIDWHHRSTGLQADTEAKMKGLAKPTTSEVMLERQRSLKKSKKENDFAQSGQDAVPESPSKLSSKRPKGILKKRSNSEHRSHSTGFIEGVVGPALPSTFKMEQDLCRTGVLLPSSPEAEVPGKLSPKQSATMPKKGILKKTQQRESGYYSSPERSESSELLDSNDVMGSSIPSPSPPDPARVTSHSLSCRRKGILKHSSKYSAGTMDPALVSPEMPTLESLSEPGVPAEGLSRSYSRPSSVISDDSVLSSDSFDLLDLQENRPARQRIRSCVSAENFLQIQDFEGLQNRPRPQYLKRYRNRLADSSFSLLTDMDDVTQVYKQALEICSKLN
Protocol: as §1

JAK1 = biological target: T3, JAK1 (Homo sapiens, UniProt P23458); assay: Kinase screening, HotSpot assay (Reaction Biology); type: biochemical
T3 construct: purchased Reaction Biology Corporation
Protocol: as §1

JAK2 = biological target: T4, JAK2 (Homo sapiens, UniProt O60674); assay: Kinase screening, HotSpot assay (Reaction Biology); type: biochemical
T4 construct: purchased Reaction Biology Corporation
Protocol: as §1

JAK2(V617F) = biological target: T5, JAK2(V617F) (Homo sapiens, UniProt O60674, V617F); assay: Kinase screening, HotSpot assay (Reaction Biology); type: biochemical
T5 construct: purchased Reaction Biology Corporation
Protocol: as §1

FLT3 (D835Y) = biological target: T6, FLT3 (D835Y) (Homo sapiens, UniProt P36888, D835Y); assay: FLT3 mutant enzyme activity, HotSpot assay; type: biochemical; settings: ATP 10 μM
T6 construct: purchased Reaction Biology Corporation
Protocol: as §1

FLT3 (ITD) = FLT3 (ITD) (Homo sapiens, UniProt P36888); assay: FLT3 mutant enzyme activity, HotSpot assay; type: biochemical; settings: ATP 10 μM
Protocol: as §1

FLT3 (ITD)-NPOS = FLT3 (ITD)-NPOS (Homo sapiens, UniProt P36888); assay: FLT3 mutant enzyme activity, HotSpot assay; type: biochemical; settings: ATP 10 μM
Protocol: as §1

Ba/F3 parental = Ba/F3 parental growth inhibition; type: cell-based; settings: Mus musculus, BaF3; Ba/F3 parental cells
CHO-K1 = assay: Cytotoxicity test (cell counting kit-8); type: cell-based, Chinese hamster; settings: Cricetulus griseus, WST-8
Text: Cell counting kit-8 assay is a general test method for identifying cell viability using a pale yellow tetrazolium salt called “WST-8”. WST-8, which is soluble in water, is degraded by a dehydrogenase present in the cells, forming orange formazan. Formazan dye is formed by dehydrogenase activity proportional to the number of viable cells, and thus can be used as an indicator for cell viability. The Hill equation of Graphpad Prism was used for analysis.

hERG K+ channel = hERG K+ channel (Homo sapiens, UniProt Q12809); assay: hERG K+ channel binding assay (fluorescence polarization)
Protocol: The hERG tracer and membranes were dissolved at room temperature before use, the tracer and hERG assay buffer were diluted at 1:62.5 and a test substance was diluted to 40 μM with assay buffer. 5 μL of the test substance, a positive control (astemizole or E-4031) and a negative control (DMSO) were dispensed into a 384-well plate, the membranes are dispensed at 10 μL using a multi-pipette and 5 μl of the tracer was dispensed. The light was blocked and incubated at 25° C. for 2 to 3 hours. Then, polarization was measured using a TECAN plate reader (Infinite M1000 pro).

human CYP isozymes = assay: CYP450 assay, summary over human CYP isozymes; type: in vitro ADME; settings: 10 μM
Protocol: Compound 5 and a positive control stock solution were diluted with water to prepare a 40 μM working solution, and a solution containing an enzyme and a substrate was prepared using water and buffer. Compound 5/control/positive control and the solution were each dispensed on a 96-well and preincubated at 37° C. for 10 minutes. The resulting substance was reacted with NADPH for 20 minutes at 37° C. and a detection reagent was added to terminate the reaction. After stabilization at room temperature for 20 minutes, a luminescence signal was measured.

hERG K+ channel, sequence (Q12809 whole entry): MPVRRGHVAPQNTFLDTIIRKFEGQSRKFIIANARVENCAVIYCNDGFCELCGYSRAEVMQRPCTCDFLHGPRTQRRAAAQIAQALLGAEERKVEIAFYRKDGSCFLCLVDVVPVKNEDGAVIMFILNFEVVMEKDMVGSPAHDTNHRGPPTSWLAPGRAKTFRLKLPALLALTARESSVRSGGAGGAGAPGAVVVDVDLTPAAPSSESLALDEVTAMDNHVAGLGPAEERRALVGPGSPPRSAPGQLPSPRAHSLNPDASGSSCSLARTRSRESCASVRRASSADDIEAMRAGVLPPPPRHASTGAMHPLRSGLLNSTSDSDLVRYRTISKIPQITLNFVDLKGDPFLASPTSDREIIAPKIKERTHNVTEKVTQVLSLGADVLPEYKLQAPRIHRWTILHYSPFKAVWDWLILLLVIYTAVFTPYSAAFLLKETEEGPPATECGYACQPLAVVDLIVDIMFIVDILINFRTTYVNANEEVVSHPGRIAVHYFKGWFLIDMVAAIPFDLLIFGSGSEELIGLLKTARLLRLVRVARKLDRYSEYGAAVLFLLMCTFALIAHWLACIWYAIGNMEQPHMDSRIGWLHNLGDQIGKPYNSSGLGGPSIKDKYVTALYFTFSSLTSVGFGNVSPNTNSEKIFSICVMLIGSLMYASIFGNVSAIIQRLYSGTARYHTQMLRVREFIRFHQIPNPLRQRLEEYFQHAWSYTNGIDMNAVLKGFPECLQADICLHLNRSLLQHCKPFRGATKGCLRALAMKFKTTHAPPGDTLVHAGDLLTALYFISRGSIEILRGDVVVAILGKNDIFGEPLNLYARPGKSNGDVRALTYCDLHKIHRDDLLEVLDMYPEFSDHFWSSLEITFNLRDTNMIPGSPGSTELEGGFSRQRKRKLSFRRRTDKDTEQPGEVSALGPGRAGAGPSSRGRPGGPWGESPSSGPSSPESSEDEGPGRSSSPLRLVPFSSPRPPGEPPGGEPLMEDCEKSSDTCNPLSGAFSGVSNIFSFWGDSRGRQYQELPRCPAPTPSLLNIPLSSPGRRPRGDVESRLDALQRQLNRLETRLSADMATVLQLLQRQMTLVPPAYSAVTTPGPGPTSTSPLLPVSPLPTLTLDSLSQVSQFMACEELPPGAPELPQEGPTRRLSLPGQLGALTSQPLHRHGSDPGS
T1 sequence (Q07912 whole entry): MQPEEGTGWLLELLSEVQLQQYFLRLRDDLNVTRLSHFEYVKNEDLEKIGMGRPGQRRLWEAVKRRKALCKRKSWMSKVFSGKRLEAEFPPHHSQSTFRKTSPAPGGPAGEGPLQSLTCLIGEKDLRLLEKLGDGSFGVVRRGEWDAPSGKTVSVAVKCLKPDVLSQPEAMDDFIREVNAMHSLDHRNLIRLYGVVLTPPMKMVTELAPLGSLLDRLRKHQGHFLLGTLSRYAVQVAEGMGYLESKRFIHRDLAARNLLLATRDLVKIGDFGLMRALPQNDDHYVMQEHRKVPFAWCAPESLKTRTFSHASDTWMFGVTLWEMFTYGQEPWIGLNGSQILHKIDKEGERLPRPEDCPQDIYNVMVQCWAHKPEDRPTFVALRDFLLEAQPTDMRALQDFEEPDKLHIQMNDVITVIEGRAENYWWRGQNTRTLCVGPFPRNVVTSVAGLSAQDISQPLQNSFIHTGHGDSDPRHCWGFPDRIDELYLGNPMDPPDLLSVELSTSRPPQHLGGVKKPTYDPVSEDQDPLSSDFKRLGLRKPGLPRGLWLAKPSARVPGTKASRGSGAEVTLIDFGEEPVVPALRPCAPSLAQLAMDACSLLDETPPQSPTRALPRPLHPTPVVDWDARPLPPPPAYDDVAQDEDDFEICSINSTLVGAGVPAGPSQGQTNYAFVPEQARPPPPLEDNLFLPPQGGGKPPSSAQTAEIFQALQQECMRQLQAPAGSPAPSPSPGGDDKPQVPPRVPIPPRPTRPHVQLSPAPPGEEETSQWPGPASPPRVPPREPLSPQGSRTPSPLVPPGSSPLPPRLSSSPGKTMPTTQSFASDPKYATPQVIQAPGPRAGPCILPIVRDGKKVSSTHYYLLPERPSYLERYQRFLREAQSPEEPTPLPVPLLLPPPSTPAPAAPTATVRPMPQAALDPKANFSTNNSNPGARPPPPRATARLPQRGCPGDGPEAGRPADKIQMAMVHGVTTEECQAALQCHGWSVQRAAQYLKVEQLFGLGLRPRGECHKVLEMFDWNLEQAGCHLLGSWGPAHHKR
T5 sequence (O60674 whole entry V617F): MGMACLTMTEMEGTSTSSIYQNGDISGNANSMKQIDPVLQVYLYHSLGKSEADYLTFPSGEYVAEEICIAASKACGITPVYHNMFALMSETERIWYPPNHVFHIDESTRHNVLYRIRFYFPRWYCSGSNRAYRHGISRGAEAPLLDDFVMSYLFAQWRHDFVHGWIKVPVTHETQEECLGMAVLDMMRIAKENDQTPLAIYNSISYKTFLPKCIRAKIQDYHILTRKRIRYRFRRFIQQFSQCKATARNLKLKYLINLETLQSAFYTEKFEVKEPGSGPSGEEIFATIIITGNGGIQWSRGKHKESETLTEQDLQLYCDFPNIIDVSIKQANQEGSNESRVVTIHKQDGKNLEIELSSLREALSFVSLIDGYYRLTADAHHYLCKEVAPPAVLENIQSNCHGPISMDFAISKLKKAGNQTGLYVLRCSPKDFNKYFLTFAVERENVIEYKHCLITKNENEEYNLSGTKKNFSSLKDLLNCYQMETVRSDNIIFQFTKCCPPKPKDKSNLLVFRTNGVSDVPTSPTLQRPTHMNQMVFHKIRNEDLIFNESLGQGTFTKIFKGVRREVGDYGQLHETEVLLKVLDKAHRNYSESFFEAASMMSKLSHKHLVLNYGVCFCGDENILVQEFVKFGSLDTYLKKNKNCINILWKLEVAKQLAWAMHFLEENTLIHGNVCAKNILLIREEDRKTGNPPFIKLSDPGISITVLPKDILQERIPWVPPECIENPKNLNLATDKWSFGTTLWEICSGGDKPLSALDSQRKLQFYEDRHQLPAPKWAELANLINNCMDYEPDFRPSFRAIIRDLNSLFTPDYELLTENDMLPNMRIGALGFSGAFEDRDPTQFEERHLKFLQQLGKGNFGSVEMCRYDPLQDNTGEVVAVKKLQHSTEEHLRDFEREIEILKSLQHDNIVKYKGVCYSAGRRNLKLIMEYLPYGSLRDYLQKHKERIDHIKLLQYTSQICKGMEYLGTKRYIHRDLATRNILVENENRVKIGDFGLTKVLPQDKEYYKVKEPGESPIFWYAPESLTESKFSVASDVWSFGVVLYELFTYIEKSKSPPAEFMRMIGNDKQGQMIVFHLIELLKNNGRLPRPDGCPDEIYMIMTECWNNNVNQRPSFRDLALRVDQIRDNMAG
T4 sequence (O60674 whole entry): as the sequence (O60674 whole entry V617F) above, with F617V counted along it
T3 sequence (P23458 whole entry): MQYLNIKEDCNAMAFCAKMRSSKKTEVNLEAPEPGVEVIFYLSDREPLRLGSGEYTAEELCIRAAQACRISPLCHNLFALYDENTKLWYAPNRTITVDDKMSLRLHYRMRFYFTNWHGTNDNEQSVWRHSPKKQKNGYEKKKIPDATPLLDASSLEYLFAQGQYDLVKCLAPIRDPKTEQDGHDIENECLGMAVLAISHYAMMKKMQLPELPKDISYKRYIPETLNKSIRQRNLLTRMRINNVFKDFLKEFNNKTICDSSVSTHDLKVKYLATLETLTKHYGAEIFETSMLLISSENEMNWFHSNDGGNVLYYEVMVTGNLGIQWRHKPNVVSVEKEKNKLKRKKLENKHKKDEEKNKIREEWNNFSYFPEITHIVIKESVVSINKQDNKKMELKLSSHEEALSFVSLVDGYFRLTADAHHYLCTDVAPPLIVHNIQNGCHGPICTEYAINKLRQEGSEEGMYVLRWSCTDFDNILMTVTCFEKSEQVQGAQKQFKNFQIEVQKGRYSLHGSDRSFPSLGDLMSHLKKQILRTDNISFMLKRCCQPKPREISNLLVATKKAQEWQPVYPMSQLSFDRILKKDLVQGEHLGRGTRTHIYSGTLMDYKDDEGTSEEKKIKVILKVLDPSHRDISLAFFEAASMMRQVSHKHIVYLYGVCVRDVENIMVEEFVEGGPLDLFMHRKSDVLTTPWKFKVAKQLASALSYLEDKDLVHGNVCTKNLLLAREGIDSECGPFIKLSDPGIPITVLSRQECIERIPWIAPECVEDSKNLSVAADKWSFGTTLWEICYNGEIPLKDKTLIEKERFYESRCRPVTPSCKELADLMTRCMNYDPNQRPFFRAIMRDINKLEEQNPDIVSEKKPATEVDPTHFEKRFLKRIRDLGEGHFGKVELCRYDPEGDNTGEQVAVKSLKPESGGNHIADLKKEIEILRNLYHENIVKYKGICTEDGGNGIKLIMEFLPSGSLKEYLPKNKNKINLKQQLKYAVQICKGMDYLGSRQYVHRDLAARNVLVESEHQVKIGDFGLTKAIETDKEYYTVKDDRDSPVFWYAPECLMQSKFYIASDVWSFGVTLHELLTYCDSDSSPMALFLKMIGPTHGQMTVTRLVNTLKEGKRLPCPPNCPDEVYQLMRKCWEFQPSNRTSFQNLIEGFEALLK

IC50 (ACK1): 51.3 nM
IC50 (ARK5/NUAK1): 2.4 nM
IC50 (JAK1): 16.1 nM
IC50 (JAK2): 8.85 nM
IC50 (JAK2(V617F)): 25.6 nM
IC50 (FLT3 (D835Y)): < 1 nM
IC50 (FLT3 (ITD)): 1.5 nM
IC50 (FLT3 (ITD)-NPOS): 4.5 nM
CYP inhibition conclusion (more than 50% inhibition needs attention) (human CYP isozymes): stable
SMILES: Clc1cnc(Nc2ccc(OCCN3CCCC3)cc2)nc1NCc1ccco1 [Compound 5, 5-chloro-4-(furan-2-yl)methylamino-2-[4-{2-(pyrrolidin-1-yl)ethoxy}phenylamino]pyrimidine]
GI50 (Ba/F3 parental): 1820 nM
IC50 (CHO-K1): > 100 µM
hERG K+ channel binding as indicator of toxicity in the heart, conclusion (hERG K+ channel): stable in the heart
IC50 (hERG K+ channel; concentrations 0.01, 0.1, 1, 2, 5, 10, 20, 50 μM): 15200 nM
